Results on 25 compounds are retold here after article PMC8286840, “Identifying SARS-CoV-2 antiviral compounds by screening for small molecule inhibitors of Nsp3 papain-like protease” (Biochemical Journal, 2021).

Assay [1] deals with T1, SARS-CoV-2 PLpro (nsp3 1564–1878) (Severe acute respiratory syndrome coronavirus 2, UniProt P0DTD1). The experiment in a line: biochemical. More on the design: FRET-quenched peptide (Pro3) cleavage by PLpro, 10 min pre-incubation, slope over 20 min, normalised to no-compound control. The following applies: high concentration screen, read-out: % of control remaining.
Assay [2] concerns the target T1, SARS-CoV-2 PLpro (nsp3 1564–1878). The experiment in a line: biochemical. More on the design: FRET-quenched peptide (Pro3) cleavage by PLpro, 10 min pre-incubation, slope over 20 min, normalised to no-compound control. As to conditions: low concentration screen, read-out: % of control remaining.

Each structure is given as a SMILES string. Where a name gives a salt, the structure may show the parent alone. Read-outs that look alike come from different tables or passages of the source.

As for `Nc1nccc(-c2c(-c3ccc(F)cc3)ncn2C2CCCCC2)n1` [4-[1-cyclohexyl-4-(4-fluorophenyl)-1H-imidazol-5-yl]-2-pyrimidinamine dihydrochloride], the remaining activity at 3.75 µM in assay [1] (Well no.=5961) came out at 102%. Further, in assay [2] (Well no.=5961), the remaining activity at 1.25 µM turned out to be 102%.

For the compound `C[C@H](c1ccc(F)cc1CCCC(=O)O)N(c1cc(F)ccc1F)S(=O)(=O)c1ccc(Cl)cc1` [4-[2-((1R)-1-{[(4-chlorophenyl)sulfonyl]-2,5-difluoroanilino}ethyl)-5-fluorophenyl]butanoic acid], the remaining activity at 3.75 µM in assay [1] (Well no.=5465) came out at 102%. In assay [2] (Well no.=5465), the remaining activity at 1.25 µM is 98.3%.

Take `O=C1CSc2ccccc2N1Cc1cccc(C(F)(F)F)c1` [4-[3-(trifluoromethyl)benzyl]-2H-1,4-benzothiazin-3(4H)-one]: the remaining activity at 3.75 µM in assay [1] (Well no.=5941) was determined as 103%. For the same compound, in assay [2] (Well no.=5941), the remaining activity at 1.25 µM amounted to 104%.

As for `Cc1ccc(C)c(-c2cc(C(F)(F)F)nn2-c2ccc(S(N)(=O)=O)cc2)c1` [4-[5-(2,5-dimethylphenyl)-3-(trifluoromethyl)-1H-pyrazol-1-yl]benzenesulfonamide], in assay [1] (Well no.=5924), the remaining activity at 3.75 µM came out at 89.1%. In addition, in assay [2] (Well no.=5924), the remaining activity at 1.25 µM is 97.9%.

Turning to `CC(=O)N1CCN(C(=O)/C=C/c2ccc(Sc3ccccc3C(C)C)c([N+](=O)[O-])c2)CC1` [4-[(1E)-3-(4-acetyl-1-piperazinyl)-3-oxo-1-propenyl]-2-nitrophenyl 2-isopropylphenyl sulfide], the remaining activity at 3.75 µM in assay [1] (Well no.=5662) was 94.5%. Besides, in assay [2] (Well no.=5662), the remaining activity at 1.25 µM was found to be 94.9%.

For the compound `CC1(C)C=Cc2c(ccc3c2OC[C@@H](c2ccc(O)cc2O)C3)O1` [4-[(3R)-8,8-dimethyl-3,4-dihydro-2H,8H-pyrano[2,3-f]chromen-3-yl]-1,3-benzenediol], the remaining activity at 3.75 µM in assay [1] (Well no.=5793) was 104%. The remaining activity at 1.25 µM in assay [2] (Well no.=5793) was found to be 100%.

For `COc1cc2ncnc(Nc3ccc(Cl)cc3F)c2cc1OC` [4-[(4'-Chloro-2'-fluoro)phenylamino]-6,7-dimethoxyquinazoline hydrochloride], the remaining activity at 3.75 µM in assay [1] (Well no.=2540) was 98.1%. For the same compound, the remaining activity at 1.25 µM in assay [2] (Well no.=2540) was 96.4%.

As for `CCN(CC)Cc1ccc(C(=O)N(CCc2ccccc2OC)[C@@H]2CCNC2)cc1` [4-[(diethylamino)methyl]-N-[2-(2-methoxyphenyl)ethyl]-N-[(3R)-3-pyrrolidinyl]benzamide dihydrochloride], the remaining activity at 3.75 µM in assay [1] (Well no.=5467) was determined as 109%. Further, the remaining activity at 1.25 µM in assay [2] (Well no.=5467) came to 107%.

On to `O=[N+]([O-])c1cc(S(=O)(=O)Nc2ccc(O)c3ccccc23)ccc1Cl` [4-chloro-N-(4-hydroxy-1-naphthyl)-3-nitrobenzenesulfonamide], for which the remaining activity at 3.75 µM in assay [1] (Well no.=5816) turned out to be 97.4%. Also, the remaining activity at 1.25 µM in assay [2] (Well no.=5816) stood at 96.1%.

Consider `COc1ccc(C2(C#N)CCC(C(=O)O)CC2)cc1OC1CCCC1` (stereo not drawn) [4-cyano-4-[3-(cyclopentyloxy)-4-methoxyphenyl]cyclohexanecarboxylic acid], for which the remaining activity at 3.75 µM in assay [1] (Well no.=5837) is 99.9%. Also, in assay [2] (Well no.=5837), the remaining activity at 1.25 µM was 101%.

For `C[C@@H](c1nc(-c2ccc(C#N)cc2)cs1)[C@](O)(Cn1cncn1)c1ccc(F)cc1F` [4-{2-[(1R,2R)-2-(2,4-difluorophenyl)-2-hydroxy-1-methyl-3-(1H-1,2,4-triazol-1-yl)propyl]-1,3-thiazol-4-yl}benzonitrile], the remaining activity at 3.75 µM in assay [1] (Well no.=5644) was 92.4%. The remaining activity at 1.25 µM in assay [2] (Well no.=5644) came out at 90.9%.

In the case of `CCCCCCCOc1cc2c(cc1/C(C)=C/c1ccc(C(=O)O)cc1)C(C)(C)CCS2(=O)=O` [4-{(1E)-2-[7-(heptyloxy)-4,4-dimethyl-1,1-dioxido-3,4-dihydro-2H-thiochromen-6-yl]-1-propenyl}benzoic acid], in assay [1] (Well no.=5553), the remaining activity at 3.75 µM worked out at 105%. In assay [2] (Well no.=5553), the remaining activity at 1.25 µM is 103%.

Turning to `COc1cc(C(=O)OCCCCNC(=N)N)cc(OC)c1O` [4-{[amino(imino)methyl]amino}butyl 4-hydroxy-3,5-dimethoxybenzoate], the remaining activity at 3.75 µM in assay [1] (Well no.=5718) stood at 98.3%. The remaining activity at 1.25 µM in assay [2] (Well no.=5718) was 93.5%.

Turning to `NS(=O)(=O)c1ccc2c(c1)C1C=CCC1C(c1ccc(Br)cc1)N2` (stereo not drawn) [4BP-TQS], the remaining activity at 3.75 µM in assay [1] (Well no.=5971) amounted to 105%. Further, the remaining activity at 1.25 µM in assay [2] (Well no.=5971) came out at 105%.

With `Nc1ncnc2c1ncn2[C@@H]1O[C@H](C(=O)NC2CC2)[C@@H](O)[C@H]1O` [5'-(N-Cyclopropyl)carboxamidoadenosine], the remaining activity at 3.75 µM in assay [1] (Well no.=86) amounted to 101%. In assay [2] (Well no.=86), the remaining activity at 1.25 µM was found to be 99.1%.

For the compound `Nc1ccn([C@@H]2O[C@H](COP(=O)(O)O)[C@@H](O)[C@H]2O)c(=O)n1` [5'-Cytidylic acid], in assay [1] (Well no.=8883), the remaining activity at 3.75 µM amounted to 86.7%. The remaining activity at 1.25 µM in assay [2] (Well no.=8883) is 83.4%.

As for `C[C@H]1O[C@@H](n2cnc3c(N)ncnc32)[C@H](O)[C@@H]1O` [5'-Deoxyadenosine], the results for the remaining activity at 3.75 µM in assay [1] (Well no.=7251) and in assay [1] (Well no.=7904) were 99% and 94.7%, respectively. The remaining activity at 1.25 µM was determined as 97.6% in assay [2] (Well no.=7251) and 91.4% in assay [2] (Well no.=7904).

In the case of `CSC[C@H]1O[C@@H](n2cnc3c(N)ncnc32)[C@H](O)[C@@H]1O` [5'-Methylthioadenosine], the remaining activity at 3.75 µM was found to be 103% in assay [1] (Well no.=6295) and 106% in assay [1] (Well no.=7812). Moreover, the remaining activity at 1.25 µM in assay [2] (Well no.=6295) is 102%; in assay [2] (Well no.=7812), 105%.

Turning to `CCNC(=O)[C@H]1O[C@@H](n2cnc3c(N)ncnc32)[C@H](O)[C@@H]1O` [5'-N-Ethylcarboxamidoadenosine], the remaining activity at 3.75 µM was determined as 96% in assay [1] (Well no.=694), 96.2% in assay [1] (Well no.=7950) and 102% in assay [1] (Well no.=8119). Also, the figures for the remaining activity at 1.25 µM in assay [2] (Well no.=694), in assay [2] (Well no.=7950) and in assay [2] (Well no.=8119) were 97.5%, 95.4% and 104%, respectively.

On to `CNC(=O)[C@H]1O[C@@H](n2cnc3c(N)ncnc32)[C@H](O)[C@@H]1O` [5'-N-Methyl carboxamidoadenosine], for which the remaining activity at 3.75 µM in assay [1] (Well no.=14) turned out to be 98%. For the same compound, in assay [2] (Well no.=14), the remaining activity at 1.25 µM was 101%.

As to `CCCCC/C=C\C\C=C/C=C/C=C/[C@@H](O)[C@@H](O)CCCC(=O)O` [5(S),6(R)-DIHETE], in assay [1] (Well no.=4373), the remaining activity at 3.75 µM was determined as 103%. In addition, the remaining activity at 1.25 µM in assay [2] (Well no.=4373) amounted to 106%.

Regarding `CCCCC/C=C\C/C=C\C/C=C\C=C\[C@H](CCCC(=O)O)OO` [5(S)-HPETE], the remaining activity at 3.75 µM in assay [1] (Well no.=4327) was determined as 103%. For the same compound, the remaining activity at 1.25 µM in assay [2] (Well no.=4327) is 106%.

With `CCCCCCCC/C=C\C/C=C\C/C=C\CCCC(=O)O` [5(Z), 8(Z), 11(Z)-Eicosatrienoic Acid], the remaining activity at 3.75 µM amounted to 103% in assay [1] (Well no.=4303) and 100% in assay [1] (Well no.=4594). Also, the values for the remaining activity at 1.25 µM in assay [2] (Well no.=4303) and in assay [2] (Well no.=4594) were 104% and 98.9%, respectively.

On to `CCCCCCCCCCC/C=C\C/C=C\CCCC(=O)O` [5(Z), 8(Z)-Eicosadienoic acid], for which the remaining activity at 3.75 µM in assay [1] (Well no.=4410) came out at 92.4%. Moreover, the remaining activity at 1.25 µM in assay [2] (Well no.=4410) worked out at 93.6%.

As for `CCCCCCCCCCCCCC/C=C\CCCC(=O)O` [5(Z)-Eicosenoic acid], the remaining activity at 3.75 µM in assay [1] (Well no.=4408) was 92.5%. Moreover, the remaining activity at 1.25 µM in assay [2] (Well no.=4408) stood at 101%.
